This is an account of results in patent US20230286948A1 (HUYABIO International, LLC, priority 2022, published 2023).

The structures appear in SMILES notation.

The target of one series is hERG (Homo sapiens (Human), UniProt Q12809). As to the kind of experiment: hERG radioligand binding assay. The note with it: for inhibition at 1 h, 10000 nM: human, hERG membrane stocks (membrane preparation), probe 3H radio ligand (not named), max dose 10,000 nM, read-out: % Inh at Max dose. As for the experimental part: Procedure: Compounds were prepared and diluted with DMSO to make 0.2 mM and 0.02 mM solution. Reference compound was diluted with DMSO to make 8-point 4-fold serial dilution, starting at 0.2 mM. One μl of compounds/high control/low control was transferred to the assay plate according to the plate map. Next, and by following the plate map, 100 μl of membrane stocks was dispensed into the plate followed by adding 100 μl of radio ligand. Plates were then sealed and were incubated at RT for 1 hours. In the meantime, the Unifilter-96 GF/C filter plates were soaked with 50 μL of 0.5% BSA per well for at least 0.5 hour at room temperature. When binding assays were completed, the reaction mixture was filtered through GF/C plates using Perkin Elmer Filtermate Harvester, and then each plate was washed for 4 times with cold wash buffer. Next, the filter plates were dried for 1 hr at 50 degrees and the bottom of the filter plate wells were sealed using Perkin Elmer Unifilter-96 backing seal tape. Next, 50 μl of Perkin Elmer Microscint 20 cocktail was added. The top of the filter plate was sealed with Perkin Elmer TopSeal-A sealing film. Using Perkin Elmer MicroBeta2 Reader count 3H trapped on filter. Finally, the data was analyzed with GraphPad Prism 5. The “Inhibition [% Control]” was calculated using the equation: % Inh=(1-Background subtracted Assay value/Background subtracted HC value)*100.
Chain of hERG (Q12809 whole entry): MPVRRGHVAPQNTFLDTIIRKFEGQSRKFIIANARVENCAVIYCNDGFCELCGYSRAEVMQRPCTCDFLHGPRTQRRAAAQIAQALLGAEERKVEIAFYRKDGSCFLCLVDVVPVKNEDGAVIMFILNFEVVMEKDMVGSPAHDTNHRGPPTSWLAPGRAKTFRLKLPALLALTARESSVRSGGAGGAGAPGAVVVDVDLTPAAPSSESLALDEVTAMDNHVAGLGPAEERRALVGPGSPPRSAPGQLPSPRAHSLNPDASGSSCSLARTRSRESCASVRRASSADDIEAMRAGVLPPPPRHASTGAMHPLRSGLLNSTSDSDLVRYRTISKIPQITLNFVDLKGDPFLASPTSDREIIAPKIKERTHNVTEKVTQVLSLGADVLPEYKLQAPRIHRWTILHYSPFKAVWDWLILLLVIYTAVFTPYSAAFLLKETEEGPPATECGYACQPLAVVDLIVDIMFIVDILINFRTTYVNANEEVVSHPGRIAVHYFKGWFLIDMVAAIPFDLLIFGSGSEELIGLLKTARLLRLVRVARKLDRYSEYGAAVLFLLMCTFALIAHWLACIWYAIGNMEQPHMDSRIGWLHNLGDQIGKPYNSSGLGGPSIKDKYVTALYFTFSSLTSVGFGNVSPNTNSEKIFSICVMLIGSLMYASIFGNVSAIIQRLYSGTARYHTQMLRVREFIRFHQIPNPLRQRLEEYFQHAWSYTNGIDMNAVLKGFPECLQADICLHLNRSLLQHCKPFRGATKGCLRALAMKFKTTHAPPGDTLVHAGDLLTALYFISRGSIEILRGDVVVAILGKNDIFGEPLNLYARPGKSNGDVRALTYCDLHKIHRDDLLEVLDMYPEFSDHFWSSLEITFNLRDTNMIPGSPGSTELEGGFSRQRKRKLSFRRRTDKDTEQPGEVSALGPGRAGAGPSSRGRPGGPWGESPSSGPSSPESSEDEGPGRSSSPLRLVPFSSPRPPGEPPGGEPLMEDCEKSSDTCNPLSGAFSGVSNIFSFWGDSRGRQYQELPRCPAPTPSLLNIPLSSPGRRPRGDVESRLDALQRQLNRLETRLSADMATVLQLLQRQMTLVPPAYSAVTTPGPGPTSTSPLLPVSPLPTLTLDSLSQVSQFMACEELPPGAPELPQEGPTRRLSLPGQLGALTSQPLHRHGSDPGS
Background: The hERG channel carries a current that helps repolarise heart muscle cells.

A further series deals with MV-411 cells. As to the kind of experiment: Anti-proliferative activity against MV-411 leukemia cells (CellTiterGlo viability, 72 h). It counts as cell-based. The note with it: Homo sapiens, MV4-11, 72 h, MV-411 human acute monocytic leukemia cells, a second value in parentheses is a further determination. As for the experimental part: Procedure: MV-411 cells were seeded into 384 well plates at 2000 cells/well density in 50 μL total volume, according to plate map and were allowed to naturally sediment by waiting about 30 min on a Clean Bench. Next, plated cells were centrifuged for 1 min at 1000 rpm and the excess cells were transferred into the flasks for further culture. Cells in the assay plates were incubated (at least 4 hrs.) at 37° C., 5% CO2 followed by adding the compounds as the plate map indicated. The tests were performed in duplicates with treatment of compounds at 10 pts 3-fold titration in 384 well plates. Taxol was used as positive control while DMSO as negative control. To rule out edge effect, the wells on the edge were not seeded and therefore one 384 well plate holds 13 compounds. Cells viability was measured 72h after incubation with compounds using CellTiterGlo (promega) viability assay according to manufacturer's instruction to check the ATP production in each well.
Experiments on anti-proliferative activity against leukemia cells were conducted with some of the compounds of the invention.
(Cellular ATP, detected with luciferase, serves as a proxy for viable cell number.)

Series [1] can be described thus: Solubility remark in Table 4. Conditions: remark beside the GI50 value. In kind it is physicochemical.
Series [2] concerns the target MLL1-WDR5 protein-protein interaction (Homo sapiens (Human), UniProt P61964). As to the kind of experiment: WDR5 TR-FRET assay (MLL1-WDR5 PPI inhibition). It counts as binding. Conditions: 5 nM WDR5 protein, 10 nM peptide, read-out: IC50 (nM), MLL1-WDR5 PPI inhibitory activity. On the procedure:
WDR5 TR-FRET Assay Procedure: Stock compounds were transferred to the assay plate by Echo Liquid Handler. […] Stock compounds were incubated with WDR5 protein for 30 min at room temperature. Plates were covered, protected from light and incubated for 60 min at room temperature, after adding the peptide and Tb-Ab. EnVision Multimode Plate Reader (PerkinElmer) was used for the TR-FRET assay with excitation wavelength at 340 nm and emission wavelength at 495 and 520 nm. The ratio of the 520/495 wavelengths were used to assess the degree of the FRET signal. IC50 was calculated by fitting the inhibition data using XLfit software to sigmoidal dose-response model.
(In general: In TR-FRET formats the signal depends on donor and acceptor labels being close together.)

Consider `CN(CCOc1ccc(NS(C)(=O)=O)cc1)CCc1ccc(NS(C)(=O)=O)cc1` [Dofetilide], for which the inhibition at 1 h, 10000 nM at hERG came out at 99.9%.

What is called GI50 is the concentration at which growth is held to half of that of the control. Usually IC50 stands for the concentration that gives 50% inhibition. Consider `CN1CCN(c2cc(F)c(-n3cc(C(=O)NCCCN4CCOCC4)nn3)cc2NC(=O)c2cnc(Cl)cc2C(F)(F)F)CC1` [Compound 7], for which the GI50 in the series with MV-411 cells stood at 0.4 µM. Further, on hERG, the IC50 is more than 10000 nM and the inhibition at 1 h, 10000 nM stood at 11.8%.

Consider `C[C@H]1CN(c2ccc(-n3cc(C(=O)NCCCN4CCOCC4)nn3)cc2NC(=O)c2cnc(Cl)cc2C(F)(F)F)CCN1C` [Compound 9], for which the GI50 in the series on MV-411 cells was found to be 0.241 µM. In addition, on hERG, the IC50 was more than 10000 nM and the inhibition at 1 h, 10000 nM came out at 6.39%.

As to `CN1CCN(c2ccc(-n3cc(C(=O)NCCCN4CCOCC4)nn3)cc2NC(=O)c2cnc(Cl)cc2C(F)(F)F)CC1` [Compound 3], in the series on MV-411 cells, the GI50 was 0.298 µM. At hERG, the IC50 was more than 10000 nM and the inhibition at 1 h, 10000 nM worked out at 3.31%.

Turning to `Cc1c(Cl)ncc(C(=O)Nc2cc(-n3cc(C(=O)NCCCN4CCOCC4)nn3)c(F)cc2N2CCN(C)[C@H](C)C2)c1Cl` [Compound 59], the GI50 in the series with MV-411 cells was more than 204 µM. For the same compound, the “solubility (remark)” value in series [1] is on record as “(poor solubility)”.

Take `Cc1ncc(C(=O)Nc2cc(-n3cc(C(=O)NCCCN4CCOCC4)nn3)ccc2N2CCN(C)CC2)c(C(F)(F)F)n1` [Example 26, 2-methyl-N-(2-(4-methylpiperazin-1-yl)-5-(4-((3-morpholinopropyl)carbamoyl)-1H-1,2,3-triazol-1-yl)phenyl)-4-(trifluoromethyl)pyrimidine-5-carboxamide]: the IC50 in series [2] is more than 10000 nM.

With `CN1CCN(c2cc(F)c(-n3cc(C(=O)NCCCN4CCOCC4)nn3)cc2NC(=O)c2c[nH]c(=O)cc2C(F)(F)F)CC1` [Example 8, N-(4-fluoro-2-(4-methylpiperazin-1-yl)-5-(4-((3-morpholinopropyl)carbamoyl)-1H-1,2,3-triazol-1-yl)phenyl)-6-oxo-4-(trifluoromethyl)-1,6-dihydropyridine-3-carboxamide], the IC50 in series [2] was 21.2 nM.

Consider `CCN(CC)C(=O)c1cn(-c2cc(NC(=O)c3cnc(F)cc3C(F)(F)F)c(N3C[C@@H](C)N(C)[C@@H](C)C3)cc2F)nn1` [Example 53, N-(5-(4-(diethylcarbamoyl)-1H-1,2,3-triazol-1-yl)-4-fluoro-2-((3S,5R)-3,4,5-trimethylpiperazin-1-yl)phenyl)-6-fluoro-4-(trifluoromethyl)nicotinamide], for which the half-inhibitory concentration (IC50) in series [2] was determined as 535 nM.

On to `COc1ccc(CNc2ccc(C(=O)Nc3cc(-n4cc(C(=O)NCCCN5CCOCC5)nn4)ccc3N3CCN(C)CC3)c(C(F)(F)F)n2)cc1` [Example 42, 6-((4-methoxybenzyl)amino)-N-(2-(4-methylpiperazin-1-yl)-5-(4-((3-morpholinopropyl)carbamoyl)-1H-1,2,3-triazol-1-yl)phenyl)-2-(trifluoromethyl)nicotinamide], for which the IC50 in series [2] was more than 10000 nM.

Regarding `C[C@@H]1CN(c2cc(F)c(-n3cc(C(=O)NC4CCN(C)CC4)nn3)cc2NC(=O)c2cnc(C(F)(F)F)cc2Cl)C[C@H](C)N1C` [Example 58, 4-chloro-N-(4-fluoro-5-(4-((1-methylpiperidin-4-yl)carbamoyl)-1H-1,2,3-triazol-1-yl)-2-((3S,5R)-3,4,5-trimethylpiperazin-1-yl)phenyl)-6-(trifluoromethyl)nicotinamide], in series [2], the IC50 is more than 10000 nM.
